SMILES strings stand for the structures.

Series [1] concerns K562 cells. The series can be described thus: MTT viability test, K562. The note with it: Homo sapiens, K562; MTT, 48 h. The format is cell-based. Here is the method: CML cell line K562 CCL-243™ (BCR-ABL^+) was purchased from the ATCC® (Manassas, VA, USA). Cells were grown in RPMI 1640 medium containing HEPES (Biowest, Nuaillé, France) with 2 mM GlutaMAX (Gibco, Grand Island, NY, USA), supplemented with 10% fetal bovine serum (Sigma-Aldrich, St. Louis, MO, USA) and […] (Gibco, Grand Island, NY, USA) and 0.1 µM Vincristine (for K562-MDR1).
Cells were seeded in 96-well plates; after 24 h, medium with the appropriate drug concentration was added to each well. After 48 h, Tetrazolium Bromide (Sigma-Aldrich, St. Louis, MO, USA) was added to each well for 2–3 h. After that, cells were lysed and formazan crystals were dissolved. Absorbance was read using an iMark Microplate absorbance reader (Bio-Rad, Hercules, CA, USA). Results were calculated relative to cells treated with DMSO only. […]
Cells were seeded in 96-well plates at 7 × 10^3 cells/well in 50 µL of complete medium (for K562 or K562-MDR1) or at 50 × 10^3 cells/well in 50 µL of complete medium (CD34+ cells). After 24 hours, 50 µL of medium with the appropriate drug concentration was added to each well. The final DMSO concentration per well was 1% for K562 and K562-MDR1 and 0.1% for CD34+ cells. After 48 hours, 20 µL of Tetrazolium Bromide (Sigma-Aldrich, St. Louis, MO, USA) at a concentration of 5 mg/mL was added to each well. Cells were incubated for 2-3 hours in a cell culture incubator, and then 10% SDS with 1% HCl was added to each well to lyse the cells and dissolve the formazan crystals. Plates were […]
A general note: Tetrazolium dyes change colour on reduction, which living cells bring about.

Series [2] in a line: Stability of BK124.1 concentrate for injection. It counts as physicochemical. The note with it: 1 mg BK124.1 in 50% Solutol HS 15/50% ethanol, 30-36 °C. From the text:
Additional file 2: Supplementary methods
The antibodies (Ab) used in the flow cytometry and immunoblotti ng experiments are listed according to the targeted protein and the vendor. Antibodies: BD Transduction Laboratories - p38 (ref. 612288), p-p38 (ref. 612289); Cell Signalling Technologies - c-Abl (ref. 2862), Akt (pan) (C67E7) (ref. 4691), STAT5 […]
(ref. 9102); Santa Cruz Biotechnology - Lamin B1 (A11) (ref. sc-377000), JNK, (ref. sc-7345), p-JNK (ref. sc-6254); Sigma - α-tubulin (ref. T-6074). Biolegend, San Diego, CA, USA - CD34 (CD34-APC), CD38 (anti- […]
BK124.1 preparation for injection
In the first step, 50 µL of Solutol HS 15 and 50 µL of anhydrous ethanol 99.8% were added to 1 mg of BK124.1, to obtain a solution of 50% Solutol HS 15/50% ethanol. This solution was shaken (1-2 h) at 30-40 °C until BK124.1 was completely dissolved. This solution was stable for 48 hours at temperatures between 30-36 °C. This concentrate is sticky, has poor filtration and portioning properties, and so cannot be administered intravenously or intraperitoneally without dilution. Therefore, in the second step, the prepared concentrate was diluted with aqua pro injectione to obtain a concentration of 10% Solutol HS 15/10% ethanol. […]

Series [3] in a line: Solubility in selected solvents. The format is physicochemical. The text has this: Supplementary Information
Table S1. Solubility of BK124.1 in selected solvents. In bold are marked solvents in which BK124.1 is soluble and stable, adequate for the administration in vivo.
Solvent Formulation Comments
Water 0.9% NaCl insoluble
10% ethanol in 0.9% NaCl insoluble
Cyclodextrin ɑ-cyclodextrin in water insoluble
β-cyclodextrin in water insoluble
γ-cyclodextrin in water insoluble […]
DMSO < 100% in water insoluble
Surfactant 20% Solutol HS 15 in 0.9% NaCl insoluble
20% Solutol HS 15 in PBS insoluble
20% Solutol HS 15, 10% ethanol in water 0.9% NaCl soluble/stable
10% Solutol HS 15, 10% ethanol in water 0.9% NaCl soluble/stable

Series [4] concerns K562 cells. Also noted: method as in PMID 26902600, PMID 31487824. The note with it: chronic myelogenous (CML) K562 cells from blast crisis; cited from earlier work.
The test system of the next series is K562-MDR1 cells. The series can be described thus: P-glycoprotein (CD243)/propidium iodide flow cytometry. The format is cell-based, human. Here is the method: BK124.1 or DMSO were added to cells and after 24 h incubation cells were harvested and stained with FITC Mouse Anti-Human P-glycoprotein (CD243) clone 17F9 (BD, Franklin Lakes, NJ, USA) or an appropriate isotype control. Propidium iodide was added to […]. Cells were analyzed on a BD FACSCalibur flow cytometer using CellQuest software (BD, Franklin Lakes, NJ, USA). […]
Flow cytometry analysis of CD243 (P-glycoprotein)
Cells were seeded at a concentration of 1-2 × 10^5 cells/mL in a 6- or 24-well plate. After 24 hours of pre-incubation, DMSO or test compounds in DMSO were added. The cells were then incubated for 24 hours. After this time, cells were harvested, washed with 0.5% BSA in PBS (Mg2+ and Ca2+ free), and labeled for 30 minutes on ice with FITC Mouse Anti-Human P-glycoprotein (CD243) clone 17F9 (BD, Franklin Lakes, NJ, USA) or an appropriate isotype control. Following incubation with the antibody, cells were stained with propidium iodide, washed with PBS and a nalyzed on a BD FACSCalibur flow cytometer using CellQuest software (BD, Franklin Lakes, NJ, USA). […]
Background: Flow cytometry measures light scatter and fluorescence of single cells or particles in a stream.

The IC50 is the midpoint of a concentration-inhibition curve. High values mean weaker potency, low ones greater potency. A word on the viability: it is a read-out of living cells in per cent, often relative to untreated cells. The molecule `CCC12C(=O)C(CC)(C(c3ccccc3)=C1c1ccccc1)C1C(=O)N(CC(O)CNC(C)C)C(=O)C12` (centres unmarked) [BK124.1, 4-[2-hydroxy-3-(propan-2-ylamino)propyl]-1,7-diethyl-8,9-diphenyl-4-azatricyclo [5.2.1.02,6]dec-8-ene-3,5,10-trione] gave an IC50 in the series with K562 cells [1] of 2.5 µM. Also, the “Time the solution was stable” value in series [2] stood at 48 h. In addition, the Solubility entry in series [3] (0.9% NaCl) was “insoluble”; in series [3] (10% Solutol HS 15, 10% ethanol in water 0.9% NaCl), “soluble/stable”; in series [3] (10% ethanol in 0.9% NaCl), “insoluble”; in series [3] (20% Solutol HS 15, 10% ethanol in water 0.9% NaCl), “soluble/stable”; in series [3] (20% Solutol HS 15 in 0.9% NaCl), “insoluble”; in series [3] (20% Solutol HS 15 in PBS), “insoluble”. For the same molecule, the Solubility result in series [3] (DMSO 100%) is on record as “soluble/stable”; in series [3] (DMSO < 100% in water), “insoluble”; in series [3] (ɑ-cyclodextrin in water), “insoluble”; in series [3] (β-cyclodextrin in water), “insoluble”; in series [3] (γ-cyclodextrin in water), “insoluble”. Moreover, the “Toxicity towards human leukemia cells” value in the series with K562 cells [4] is on record as “selectively toxic”. In addition, the “Proportion of K562-MDR1 cells, mean value” with K562-MDR1 cells (5 µM, 24 h, DMSO control 33.6%) is 68.3%. Besides, the viability at 5 µM in the series on K562-MDR1 cells (Homo sapiens, 5 µM, 24 h, DMSO control 89.2%, read-out: Living cells (viability), mean value) worked out at 53.8%. Moreover, in the series on K562-MDR1 cells (conclusion from K562-MDR1 data), the MDR1 substrate result was “not a MDR1 substrate”.

Source of the values: PMC9332833 (Cancers, 2022).
